The values below are quoted from earlier work in patent US7195789B2, “Non-fiber extract of psyllium with anti-tumorigenic effects and method for identifying the same” (Board of Trustees of Michigan State University, priority 2002, dated 2007).

The subject of data set [1] is WB-Ha-ras cells. The conditions noted are these: WB-Ha-ras cell line; Na et al. 2000.
For a further data set, the system named is connexin 43. Particulars: Na et al. 2000.
Data set [2] has as its system WB-Ha-ras cells. The conditions noted are these: WB-Ha-ras cell line; Na et al. 2000. The source holds these as a separate data set.
Another data set relates to ras protein (p21^ras). Particulars: Na et al. 2000.

For the compound `O=C(/C=C/c1ccc(O)c(O)c1)OCCc1ccccc1` [CAPE, phenylethyl ester of caffeic acid], the “inhibition of AIG” value with WB-Ha-ras cells [1] was “inhibited AIG”. In addition, the “expression of hyperphosphorylated Cx43” value with connexin 43 is “restored”. In addition, the “restoration of GJIC” value with WB-Ha-ras cells [2] was “restored GJIC”. In addition, the “protein level of p21^ras by Western blot” value in the data set on ras protein (p21^ras) is reported as “decreased”.
